Experimental data taken from ChEMBL document CHEMBL1275557, “First countrywide survey of acquired metallo-beta-lactamases in gram-negative pathogens in Italy” (2008).
Converted amounts (≈) assume the structure as drawn.

Key:
Type in all cases: functional
Pseudomonas aeruginosa [1] = test: Antibacterial activity against IMP-13 producing Pseudomonas aeruginosa clone C2 isolate NA-14X-02 by Etest method
Pseudomonas aeruginosa [2] = test: Antibacterial activity against VIM-2 producing Pseudomonas aeruginosa clone B1 isolate SS-09X-45 by Etest method
Pseudomonas aeruginosa [3] = test: Antibacterial activity against VIM-1 producing Pseudomonas aeruginosa clone F isolate RM-11X-09 by Etest method
Pseudomonas aeruginosa [4] = test: Antibacterial activity against VIM-2 producing Pseudomonas aeruginosa clone B2 isolate VA-06X-20 by Etest method
Pseudomonas aeruginosa [5] = test: Antibacterial activity against IMP-13 producing Pseudomonas aeruginosa clone C1 isolate AV-13X-28 by Etest method
Pseudomonas aeruginosa [6] = test: Antibacterial activity against VIM-1 producing Pseudomonas aeruginosa clone D isolate VA-06X-69 by Etest method
Pseudomonas aeruginosa [7] = test: Antibacterial activity against VIM-2 producing Pseudomonas aeruginosa clone B3 isolate PV-05X-02 by Etest method
Pseudomonas aeruginosa [8] = test: Antibacterial activity against VIM-2 producing Pseudomonas aeruginosa clone B3 isolate CR-04X-14 by Etest method
Pseudomonas aeruginosa [9] = test: Antibacterial activity against VIM-2 producing Pseudomonas aeruginosa clone B2 isolate VA-06X-28 by Etest method
Pseudomonas aeruginosa [10] = test: Antibacterial activity against VIM-1 producing Pseudomonas aeruginosa clone A3 isolate NA-14X-34 by Etest method
Pseudomonas aeruginosa [11] = test: Antibacterial activity against VIM-2 producing Pseudomonas aeruginosa clone B3 isolate PV-05X-07 by Etest method
Pseudomonas aeruginosa [12] = test: Antibacterial activity against VIM-1 producing Pseudomonas aeruginosa clone E isolate VA-06X-29 by Etest method
Pseudomonas aeruginosa [13] = test: Antibacterial activity against metallo-beta-lactamase positive Pseudomonas aeruginosa assessed as percent susceptible isolates by Etest method
Pseudomonas aeruginosa [14] = test: Antibacterial activity against VIM-1 producing Pseudomonas aeruginosa clone D1 isolate VA-06X-63 by Etest method
Pseudomonas aeruginosa [15] = test: Antibacterial activity against VIM-1 producing Pseudomonas aeruginosa clone D4 isolate VA-06X-47 by Etest method
Pseudomonas aeruginosa [16] = test: Antibacterial activity against VIM-1 producing Pseudomonas aeruginosa clone A2 isolate NA-14X-21 by Etest method
Pseudomonas aeruginosa [17] = test: Antibacterial activity against VIM-2 producing Pseudomonas aeruginosa clone B2 isolate VA-06X-38 by Etest method
Pseudomonas aeruginosa [18] = test: Antibacterial activity against VIM-1 producing Pseudomonas aeruginosa clone A1 isolate FG-17X-14 by Etest method
Pseudomonas aeruginosa [19] = test: Antibacterial activity against VIM-1 producing Pseudomonas aeruginosa clone A3 isolate FG-17X-08 by Etest method
Pseudomonas aeruginosa [20] = test: Antibacterial activity against IMP-13 producing Pseudomonas aeruginosa clone C2 isolate NA-14X-11 by Etest method
Pseudomonas aeruginosa [21] = test: Antibacterial activity against VIM-1 producing Pseudomonas aeruginosa clone A2 isolate NA-14X-32 by Etest method
Pseudomonas aeruginosa [22] = test: Antibacterial activity against VIM-1 producing Pseudomonas aeruginosa clone D3 isolate VA-06X-65 by Etest method
Pseudomonas aeruginosa [23] = test: Antibacterial activity against VIM-1 producing Pseudomonas aeruginosa clone G isolate NA-14X-13 by Etest method
Pseudomonas putida [24] = test: Antibacterial activity against VIM-1 producing Pseudomonas putida isolate RM-11X-11 by Etest method
Pseudomonas aeruginosa [25] = test: Antibacterial activity against VIM-1 producing Pseudomonas aeruginosa clone D2 isolate VA-06X-16 by Etest method
Pseudomonas aeruginosa [26] = test: Antibacterial activity against IMP-13 producing Pseudomonas aeruginosa clone C2 isolate NA-14X-12 by Etest method
Pseudomonas aeruginosa [27] = test: Antibacterial activity against IMP-13 producing Pseudomonas aeruginosa clone C3 isolate PG-12X-03 by Etest method
Pseudomonas aeruginosa [28] = test: Antibacterial activity against IMP-13 producing Pseudomonas aeruginosa clone C2 isolate NA-14X-10 by Etest method
Enterobacter cloacae [29] = test: Antibacterial activity against VIM-1 producing Enterobacter cloacae isolate TO-16X-51 by Etest method
Pseudomonas aeruginosa [30] = test: Antibacterial activity against VIM-1 producing Pseudomonas aeruginosa clone A2 isolate NA-14X-26 by Etest method
Pseudomonas aeruginosa [31] = test: Antibacterial activity against VIM-1 producing Pseudomonas aeruginosa clone D2 isolate VA-06X-17 by Etest method
[32] = Antibacterial activity against nonreplicate Burkholderia cepacia complex clinical isolate by Etest method
Pseudomonas putida [33] = test: Antibacterial activity against nonreplicate Pseudomonas putida clinical isolate by Etest method
Pseudomonas aeruginosa [34] = test: Antibacterial activity against nonreplicate Pseudomonas aeruginosa clinical isolate by Etest method
Klebsiella pneumoniae = test: Antibacterial activity against nonreplicate Klebsiella pneumoniae clinical isolate by Etest method
Acinetobacter baumannii = test: Antibacterial activity against nonreplicate Acinetobacter baumannii clinical isolate by Etest method
Enterobacter cloacae [35] = test: Antibacterial activity against nonreplicate Enterobacter cloacae clinical isolate by Etest method
Klebsiella aerogenes = test: Antibacterial activity against nonreplicate Enterobacter aerogenes clinical isolate by Etest method
Proteus mirabilis = test: Antibacterial activity against nonreplicate Proteus mirabilis clinical isolate by Etest method

| Structure (SMILES) | MIC (Pseudomonas aeruginosa [1]) | MIC (Pseudomonas aeruginosa [2]) | MIC (Pseudomonas aeruginosa [3]) | MIC (Pseudomonas aeruginosa [4]) | MIC (Pseudomonas aeruginosa [5]) | MIC (Pseudomonas aeruginosa [6]) | MIC (Pseudomonas aeruginosa [7]) | MIC (Pseudomonas aeruginosa [8]) | MIC (Pseudomonas aeruginosa [9]) | MIC (Pseudomonas aeruginosa [10]) | MIC (Pseudomonas aeruginosa [11]) | MIC (Pseudomonas aeruginosa [12]) | MIC (Pseudomonas aeruginosa [14]) | MIC (Pseudomonas aeruginosa [15]) | MIC (Pseudomonas aeruginosa [16]) | MIC (Pseudomonas aeruginosa [17]) | MIC (Pseudomonas aeruginosa [18]) | MIC (Pseudomonas aeruginosa [19]) | MIC (Pseudomonas aeruginosa [20]) | MIC (Pseudomonas aeruginosa [21]) | further results |
| --- | --- | --- | --- | --- | --- | --- | --- | --- | --- | --- | --- | --- | --- | --- | --- | --- | --- | --- | --- | --- | --- |
| NCC[C@H](O)C(=O)N[C@@H]1C[C@H](N)[C@@H](O[C@H]2O[C@H](CN)[C@@H](O)[C@H](O)[C@H]2O)[C@H](O)[C@H]1O[C@H]1O[C@H](CO)[C@@H](O)[C@H](N)[C@H]1O [AMIKACIN] | 16 µg/mL (≈ 27.3 µM) | > 128 µg/mL | 8 µg/mL (≈ 13.7 µM) | > 128 µg/mL | 8 µg/mL (≈ 13.7 µM) | 8 µg/mL (≈ 13.7 µM) | > 128 µg/mL | > 128 µg/mL | > 128 µg/mL | 24 µg/mL (≈ 41 µM) | > 128 µg/mL | > 128 µg/mL | 8 µg/mL (≈ 13.7 µM) | 8 µg/mL (≈ 13.7 µM) | 24 µg/mL (≈ 41 µM) | > 128 µg/mL | 8 µg/mL (≈ 13.7 µM) | 16 µg/mL (≈ 27.3 µM) | 16 µg/mL (≈ 27.3 µM) | 24 µg/mL (≈ 41 µM) | Activity (Pseudomonas aeruginosa [13]): 50%; MIC (Pseudomonas aeruginosa [22]): 8 µg/mL (≈ 13.7 µM); MIC (Pseudomonas aeruginosa [23]): > 128 µg/mL; MIC (Pseudomonas putida [24]): 1 µg/mL (≈ 1.71 µM); MIC (Pseudomonas aeruginosa [25]): 8 µg/mL (≈ 13.7 µM); MIC (Pseudomonas aeruginosa [26]): 16 µg/mL (≈ 27.3 µM); MIC (Pseudomonas aeruginosa [27]): > 128 µg/mL; MIC (Pseudomonas aeruginosa [28]): 16 µg/mL (≈ 27.3 µM); MIC (Enterobacter cloacae [29]): 24 µg/mL (≈ 41 µM); MIC (Pseudomonas aeruginosa [30]): 32 µg/mL (≈ 54.6 µM); MIC (Pseudomonas aeruginosa [31]): 8 µg/mL (≈ 13.7 µM) |
| C[C@@H](O)[C@H]1C(=O)N2C(C(=O)O)=C(SCCNC=N)C[C@H]12 [IMIPENEM ANHYDROUS] | > 32 µg/mL | > 32 µg/mL | > 32 µg/mL | > 32 µg/mL | > 16 µg/mL | > 32 µg/mL | > 32 µg/mL | > 32 µg/mL | > 32 µg/mL | > 32 µg/mL | > 32 µg/mL | > 32 µg/mL | > 32 µg/mL | > 32 µg/mL | > 32 µg/mL | > 32 µg/mL | > 32 µg/mL | > 32 µg/mL | > 32 µg/mL | > 32 µg/mL | MIC [32]: 8 µg/mL (≈ 26.7 µM); MIC (Pseudomonas putida [33]): 16 µg/mL (≈ 53.4 µM); MIC (Pseudomonas aeruginosa [34]): 8 µg/mL (≈ 26.7 µM); MIC (Klebsiella pneumoniae): 2 µg/mL (≈ 6.68 µM); MIC (Acinetobacter baumannii): 4 µg/mL (≈ 13.4 µM); MIC (Pseudomonas aeruginosa [22]): > 32 µg/mL; MIC (Enterobacter cloacae [35]): 4 µg/mL (≈ 13.4 µM); MIC (Pseudomonas aeruginosa [23]): > 32 µg/mL; MIC (Pseudomonas putida [24]): > 32 µg/mL; MIC (Pseudomonas aeruginosa [25]): > 32 µg/mL; MIC (Pseudomonas aeruginosa [26]): > 32 µg/mL; MIC (Pseudomonas aeruginosa [27]): > 32 µg/mL; MIC (Klebsiella aerogenes): 16 µg/mL (≈ 53.4 µM); MIC (Pseudomonas aeruginosa [28]): > 32 µg/mL; MIC (Enterobacter cloacae [29]): 4 µg/mL (≈ 13.4 µM); MIC (Pseudomonas aeruginosa [30]): > 32 µg/mL; MIC (Pseudomonas aeruginosa [31]): > 32 µg/mL; MIC (Proteus mirabilis): 8 µg/mL (≈ 26.7 µM) |
